Columns and labels:
Test in all cases: In vitro antiproliferation assay, General Procedure 2 (CCK-8)
Type in all cases: cell-based
HL-60 cell line = details: Homo sapiens, HL-60; AML; read-out: IC50, HL-60
Outline: (§1)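 Following at least two passages after thawing, cells were treated with serially diluted compound (100 nM top, 4-fold) for 3 days in suspension or 5 days when adherent, and viability was quantified by CCK-8.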

SKOV3 cell line = details: Homo sapiens, SK-OV-3; Ovarian
Outline: as §1

U251MG cell line = details: Homo sapiens, U-251; Brain
Outline: as §1

RPMI7951 cell line = details: Homo sapiens, RPMI-7951; Skin
Outline: as §1

RH41 cell line = details: Homo sapiens, Rhabdomyosarcoma
Outline: as §1

MOLM13 cell line = details: Homo sapiens, MOLM-13; AML; read-out: IC50, MOLM13
Outline: as §1

OCI-AML2 cell line = details: Homo sapiens, OCI-AML2; Acute myeloid leukemia; read-out: IC50, OCI-AML2
Outline: as §1

ML-2 cell line = details: Homo sapiens, ML-2; Acute myelomonocytic leukemia; read-out: IC50, ML-2
Outline: as §1

[1] = test system: HS-SY-II synovial sarcoma cell line
Outline: as §1

RH30 cell line = details: Rhabdomyosarcoma
Outline: as §1

Daudi cell line = details: Homo sapiens, NHL
Outline: as §1

Molp8 cell line = details: Homo sapiens, MOLP-8; MM
Outline: as §1

IC50 (HL-60 cell line): 12.3 nM | IC50 (SKOV3 cell line): 114 nM | IC50 (U251MG cell line): > 1000 nM | IC50 (MOLM13 cell line): 24.8 nM | IC50 (OCI-AML2 cell line): 95.9 nM | IC50 [1]: 11.7 nM | IC50 (Daudi cell line): 47.4 nM
SMILES: CNCCOCCc1ccc(NC(=O)NCc2ccc3c(c2)CN(C2CCC(=O)NC2=O)C3=O)cc1Cl (stereo not drawn) [Compound P1, 1-(3-chloro-4-[2-[2-(methylamino)ethoxy]ethyl]phenyl)-3-[[2-(2,6-dioxopiperidin-3-yl)-1-oxo-3H-isoindol-5-yl]methyl]urea]
IC50 (RPMI7951 cell line): 97.1 nM | IC50 (RH41 cell line): 1210 nM | IC50 (ML-2 cell line): 1.86 nM | IC50 (RH30 cell line): 174 nM | IC50 (Molp8 cell line): 23.7 nM
